For experiment [1], the system named is cell line R1 (human cell line derived from carotid artery atherosclerotic lesion). The experiment can be described thus: MTT cell survival after fas ligation (CH11), cell line R1. It counts as cell-based. How it is done: (§1) Cells for study were derived from human carotid artery atherosclerotic lesions, by published methods. Additionally, cell lines were subcloned and tested for sensitivity to fas ligation. In the present studies, clonal lines with known resistance to fas ligation were used.
(§2) Induction of apoptosis was achieved by reduction of serum concentration from 10% to 1% FBS for 24 hours prior to adding an activating antibody to fas (CH11, Upstate Biotechnology) at a typical concentration of 50-500 ng/ml. Typically 24-48 hours after fas ligation by CH11, cell survival was determined by measuring metabolic activity by the MTT method.
However, in the presence of fas, the cells pretreated with BCLI underwent a high degree of apoptosis (70% cell death). […] Thus, the drug is neither toxic nor capable of inducing apoptosis alone at this concentration.
Referring to FIG. 1, A human cell line derived from carotid artery atherosclerotic lesion was plated at known density and then subgroups of 3 wells were treated with various drugs prior to exposure to fas ligation by the activating CH11 antibody (+fas). Pretreatment with flavopiridol (Flavo, 50 nM) or BCLI (Bcl-inh, 20 μM or 100 μM) was followed 24 hours later by addition of CH11 activating antibody to fas (50 ng/ml). After fas ligation, cell survival was evaluated 24 hours later by measuring the number of viable cells using the metabolic dye MTT, which is converted to a blue dye that absorbs at 570 nm. Values reflect the mean±s.e.m. (n=3 per group).

Experiment [2] deals with R1GFP (human atherosclerosis-derived cell line with known resistance to fas ligation). The experiment can be described thus: MTT cell survival after fas ligation (CH11), GFP-only expressing cell line. It counts as cell-based. The following applies: for effect on cell survival in the absence of fas (drug alone): AA3 20 μg/ml, no CH11. Here is the method:
as §1, §2
In addition to the BCL-inhibitor, this sensitizing effect was also observed with AA. As above, a human atherosclerosis-derived cell line with known resistance to fas ligation was used for study. In this case, the cell line was stably infected with a retrovirus expressing either an irrelevant marker gene (green fluorescent protein, GFP) or the marker gene and Bcl-Xl. In the GFP-only expressing cell line (R1GFP), fas ligation (50 ng/ml CH11) in low serum (1% FBS) led to only 15% cell death (85% survival) (see FIG. 2).
(§3) Referring to FIG. 2, human atherosclerosis-derived cells were pretreated with the specified drugs for 24 prior to treatment with the activating fas antibody CH11 (50 ng/ml). […] The drugs used were AA (20 μg/ml), BCLI (20 μM), interferon-gamma (IFN, 50 U/ml), and SP600125 (SP, 20 μM). The upper panel reports the MTT optical density (absorbance at 570 nm) without (control) or with fas ligation (+fas) as the mean, with error bars indicating±standard error of measurement (s.e.m., n=3 per group). The lower panel expresses % survival based on the MTT values above (MTT+fas/MTT Control)×100.

Experiment [3] relates to R1 cells over-expressing Bcl-Xl (R1 bclXL). Description: MTT cell survival after fas ligation (CH11), R1 cells over-expressing Bcl-Xl. The experiment is classed as cell-based, human. The following applies: AA 20 μg/ml; BCLI 20 μM; IFN 50 U/ml; SP 20 μM; CH11 50 ng/ml. Here is the method: as §2
In one example, to determine whether the effect of BCLI and AA was via interaction with their intended targets (Bcl-Xl and Bcl-2), the drugs were tested in R1 cells over-expressing Bcl-Xl (R1 bclXL).
as §3

The test system of a further experiment is Human lesion cells. The experiment can be described thus: MTT assay for sensitivity to fas-induced apoptosis in human lesion cells. The experiment is classed as cell-based. The following applies: for death with fas ligation (sensitivity to apoptosis): 24 h, 20% death without drug. Here is the method: as §1, §2
FIG. 3 depicts the effect of 2-methoxy-antimycin A3 (AA3) and gossypol on the sensitivity to apoptosis in human lesion cells. Human lesion cells were plated and treated as above for 24 hours with the specified concentrations of drug. Fas ligation was initiated with 50 ng/ml of activating antibody CH11 and 24 hours later the number of cell surviving was measured by their metabolism of MTT. Bars are mean±s.d. (n=4 per group). A reduction in MTT levels indicates cell death.
FIG. 4 depicts the effect of HA14-1 and 2,3-DCPE on sensitivity to fas-induced apoptosis. Human lesion cells were plated and treated as above for 24 hours with the specified concentrations […] of HA14-1 (H) or 2,3-DCPE (D). Fas ligation was initiated with 50 ng/ml of activating antibody CH11 and 24 hours later the number of cell surviving was measured by their metabolism of MTT. Bars are mean±s.d. (n=2 per group). A reduction in MTT levels indicates cell death.
(In general: Formazan colour is commonly taken as a measure of viable cells.)

In the case of “2,9-dimethoxy-11,12-dihydrodibenzo[c,g][1,2]-diazocine 5,6-dioxide (A) and 5,5′-Dimethoxy-2,2′-dinitrosobenzyl (B) [BCLI]”, the “effect upon cell survival in the absence of the activating antibody to fas” value in experiment [1] (20 μM, no CH11) is given as “little or no effect”. The “effect on cell survival in the absence of fas ligation” value in experiment [1] (100 μM, no CH11) is recorded as “substantial effect on cell survival”. In addition, in experiment [1] (BCLI pretreatment 20 μM, 24 h, CH11 50 ng/ml, MTT 24 h later), the “cell death (apoptosis) in the presence of fas” value amounted to 70%. In experiment [2] (BCLI 20 μM), the “effect on cell survival in the absence of fas (drug alone)” value was “slightly more apoptosis alone”. In addition, the “effectiveness in Bcl-Xl over-expressing cells compared with GFP control cells” value in experiment [3] is “markedly less effective”.
For the compound `CCCC[C@H]1C(=O)O[C@H](C)[C@H](NC(=O)c2cccc(NC=O)c2OC)C(=O)O[C@@H](C)[C@@H]1OC(=O)CC(C)C` [AA3, 2-methoxyantimycin A3], the “apoptosis in the presence of fas” value in experiment [2] (24 hour pretreatment 20 μg/ml, CH11 50 ng/ml, 1% FBS) was found to be 70%. Besides, the “effect on cell survival in the absence of fas (drug alone)” value in experiment [2] (BCLI 20 μM) is on record as “only a small effect on cell survival”. Besides, the “death with fas ligation (sensitivity to apoptosis)” value with Human lesion cells (10 μg/ml, CH11 50 ng/ml) was determined as 80%; in the experiment with Human lesion cells (20 μg/ml, CH11 50 ng/ml) it was 80%. Besides, the “death in the absence of fas ligation” value in the experiment with Human lesion cells (AA3 at higher concentrations (above 20 μg/ml), no fas ligation) was “induced death even in the absence of fas ligation”.
Regarding `Cl.OCCNCCCOc1cccc(Cl)c1Cl` [DCPE, 2,[[3-(2,3-dichlorophenoxy)propyl]amino]ethanol-HCl], the “fas-dependent sensitization to apoptosis” value with Human lesion cells (only at the highest tested dose of 100 μM, CH11 50 ng/ml) is on record as “significant fas-dependent sensitization to apoptosis”.
Regarding `Cc1cc2c(C(C)C)c(O)c(O)c(C=O)c2c(O)c1-c1c(C)cc2c(C(C)C)c(O)c(O)c(C=O)c2c1O` [Gossypol, 2,2′-bis(8-Formyl-1,6,7-trihydroxy-5-isopropyl-3-methylnaphthalene)], in the experiment with Human lesion cells (2.5 μM, CH11 50 ng/ml, 80% survival without drug), the “survival in the presence of fas” value is reported as 50%.
On to `CCOC(=O)C1=C(N)Oc2ccc(Br)cc2C1C(C#N)C(=O)OCC` (centres unmarked) [HA14-1, Ethyl-2-amino-6-bromo-4-(1-cyano-2-ethoxy-2-oxoethyl)-4H-chromene-3-carboxylate], for which the fas-independent death-inducing effect result in the experiment with Human lesion cells (25-100 μM) is “fas-independent death-inducing effect”. Besides, in the experiment with Human lesion cells (HA14-1, all tested concentrations, CH11 50 ng/ml), the “ability to sensitize cells to fas-induced apoptosis” value is “did not demonstrate any ability to sensitize cell to apoptosis”.
Consider Antimycin A [AA], for which, in experiment [3], the “effectiveness in Bcl-Xl over-expressing cells compared with GFP control cells” value is “markedly less effective”.
In the case of “interferon-gamma: interferon-gamma, a known sensitizing agent”, in experiment [2] (BCLI 20 μM, interferon-gamma 50 U/ml, SP600125 20 μM, CH11 50 ng/ml), the “sensitizing effect to fas ligation (in words)” value is reported as “comparable effect”. Also, the “effectiveness in Bcl-Xl over-expressing cells compared with GFP control cells” value in experiment [3] was “less effective”.
